Test results: ChEMBL document CHEMBL1909046, “DrugMatrix in vitro pharmacology data”

Target: Beta-1 adrenergic receptor (Homo sapiens, UniProt P08588)
Experiment: DRUGMATRIX: Adrenergic beta1 radioligand binding (ligand: [125I] Cyanopindolol)
Type: cell membranes, CHO-K1, Membrane
Conditions: cho-k1; Not Active = under 50% inhibition at 10 µM

Sequence of Beta-1 adrenergic receptor (P08588 whole entry): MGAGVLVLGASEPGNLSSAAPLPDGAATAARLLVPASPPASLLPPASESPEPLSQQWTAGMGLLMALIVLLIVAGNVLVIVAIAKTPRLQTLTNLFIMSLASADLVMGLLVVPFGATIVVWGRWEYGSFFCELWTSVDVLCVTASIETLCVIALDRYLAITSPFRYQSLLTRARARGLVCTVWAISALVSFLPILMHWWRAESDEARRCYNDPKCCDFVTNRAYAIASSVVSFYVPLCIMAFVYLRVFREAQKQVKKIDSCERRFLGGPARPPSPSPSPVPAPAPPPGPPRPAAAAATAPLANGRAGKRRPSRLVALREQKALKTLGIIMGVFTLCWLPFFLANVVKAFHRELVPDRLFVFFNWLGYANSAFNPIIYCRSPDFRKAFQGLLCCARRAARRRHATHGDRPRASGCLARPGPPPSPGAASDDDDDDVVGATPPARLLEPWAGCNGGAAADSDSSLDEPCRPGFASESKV

SMILES | IC50
COc1ccc(CN(CCN(C)C)c2ccccn2)cc1 [PYRILAMINE] | Not Active
O=C1OC2(c3ccc(O)cc3Oc3cc(O)ccc32)c2ccccc21 [FLUORESCEIN] | Not Active
Brc1ccccc1 [BROMOBENZENE] | Not Active
CCCSc1ccc2nc(NC(=O)OC)[nH]c2c1 [ALBENDAZOLE] | Not Active

Test system: not listed separately
Experiment: DRUGMATRIX: beta-Lactamase enzyme inhibition (substrate: Nitrocefin)
Design: species or system Bacillus cereus
Conditions: Not Active = under 50% inhibition at 10 µM

SMILES | IC50 | Ki
COc1ccc(CN(CCN(C)C)c2ccccn2)cc1 [PYRILAMINE] | Not Active | Not Active
O=C1OC2(c3ccc(O)cc3Oc3cc(O)ccc32)c2ccccc21 [FLUORESCEIN] | Not Active | Not Active
Brc1ccccc1 [BROMOBENZENE] | Not Active | Not Active
CCCSc1ccc2nc(NC(=O)OC)[nH]c2c1 [ALBENDAZOLE] | Not Active | Not Active

Target: T1, 5-hydroxytryptamine receptor 2C (Homo sapiens, UniProt P28335)
T1 sequence (P28335 whole entry): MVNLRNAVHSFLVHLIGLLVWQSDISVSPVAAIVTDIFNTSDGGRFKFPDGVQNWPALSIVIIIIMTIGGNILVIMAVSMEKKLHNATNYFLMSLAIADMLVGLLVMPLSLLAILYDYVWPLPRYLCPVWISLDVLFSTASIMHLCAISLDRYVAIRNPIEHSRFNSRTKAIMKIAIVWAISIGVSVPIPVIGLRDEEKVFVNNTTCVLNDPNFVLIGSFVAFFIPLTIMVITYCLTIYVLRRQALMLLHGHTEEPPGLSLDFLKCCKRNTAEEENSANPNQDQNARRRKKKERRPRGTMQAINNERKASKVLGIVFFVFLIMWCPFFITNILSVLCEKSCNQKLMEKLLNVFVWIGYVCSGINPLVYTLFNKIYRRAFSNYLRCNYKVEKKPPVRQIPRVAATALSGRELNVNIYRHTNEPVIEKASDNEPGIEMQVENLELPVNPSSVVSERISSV
Experiment: DRUGMATRIX: Serotonin (5-Hydroxytryptamine) 5-HT2C radioligand binding (ligand: [3H] Mesulergine)
Type: cell membranes, CHO-K1, Membrane
Conditions: Not Active = under 50% inhibition at 10 µM; read-out: IC50

SMILES | IC50
COc1ccc(CN(CCN(C)C)c2ccccn2)cc1 [PYRILAMINE] | 1130 nM

Same assay, conditions: Not Active = under 50% inhibition at 10 µM; read-out: Ki

SMILES | Ki
COc1ccc(CN(CCN(C)C)c2ccccn2)cc1 [PYRILAMINE] | 592 nM

Same assay, conditions: cho-k1; Not Active = under 50% inhibition at 10 µM

SMILES | IC50
O=C1OC2(c3ccc(O)cc3Oc3cc(O)ccc32)c2ccccc21 [FLUORESCEIN] | Not Active
Brc1ccccc1 [BROMOBENZENE] | Not Active
CCCSc1ccc2nc(NC(=O)OC)[nH]c2c1 [ALBENDAZOLE] | Not Active

Test system: not listed separately
Experiment: DRUGMATRIX: Sigma2 radioligand binding (ligand: [3H] Ifenprodil)
Type: cell membranes, Rattus norvegicus, Wistar, Brain, Membrane
Conditions: Not Active = under 50% inhibition at 10 µM

SMILES | IC50 | Ki
COc1ccc(CN(CCN(C)C)c2ccccn2)cc1 [PYRILAMINE] | Not Active | Not Active
O=C1OC2(c3ccc(O)cc3Oc3cc(O)ccc32)c2ccccc21 [FLUORESCEIN] | Not Active | Not Active
Brc1ccccc1 [BROMOBENZENE] | Not Active | Not Active
CCCSc1ccc2nc(NC(=O)OC)[nH]c2c1 [ALBENDAZOLE] | Not Active | Not Active

Target: T2, D(4) dopamine receptor (Homo sapiens, UniProt P21917)
T2 sequence (P21917 whole entry): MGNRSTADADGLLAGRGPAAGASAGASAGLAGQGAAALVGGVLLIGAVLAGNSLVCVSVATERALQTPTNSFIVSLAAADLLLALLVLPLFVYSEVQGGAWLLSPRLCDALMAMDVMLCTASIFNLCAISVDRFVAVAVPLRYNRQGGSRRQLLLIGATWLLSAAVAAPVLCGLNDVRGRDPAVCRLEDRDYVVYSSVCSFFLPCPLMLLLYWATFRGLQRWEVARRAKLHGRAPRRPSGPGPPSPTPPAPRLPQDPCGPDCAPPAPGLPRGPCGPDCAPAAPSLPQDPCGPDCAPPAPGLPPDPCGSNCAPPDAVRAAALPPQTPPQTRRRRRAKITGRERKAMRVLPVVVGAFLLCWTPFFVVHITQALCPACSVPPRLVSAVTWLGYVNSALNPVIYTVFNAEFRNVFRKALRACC
Experiment: DRUGMATRIX: Dopamine D4.2 radioligand binding (ligand: [3H] Spiperone)
Type: cell membranes, CHO-K1, Membrane
Conditions: cho-k1; Not Active = under 50% inhibition at 10 µM

SMILES | IC50
COc1ccc(CN(CCN(C)C)c2ccccn2)cc1 [PYRILAMINE] | Not Active
O=C1OC2(c3ccc(O)cc3Oc3cc(O)ccc32)c2ccccc21 [FLUORESCEIN] | Not Active
Brc1ccccc1 [BROMOBENZENE] | Not Active
CCCSc1ccc2nc(NC(=O)OC)[nH]c2c1 [ALBENDAZOLE] | Not Active

Test system: not listed separately
Experiment: DRUGMATRIX: Leukotriene, BLT (LTB4) radioligand binding (ligand: [3H]LTB4)
Type: cell membranes, Membrane
Conditions: u-937; Not Active = under 50% inhibition at 10 µM

SMILES | IC50 | Ki
COc1ccc(CN(CCN(C)C)c2ccccn2)cc1 [PYRILAMINE] | Not Active | Not Active
O=C1OC2(c3ccc(O)cc3Oc3cc(O)ccc32)c2ccccc21 [FLUORESCEIN] | Not Active | Not Active
Brc1ccccc1 [BROMOBENZENE] | Not Active | Not Active
CCCSc1ccc2nc(NC(=O)OC)[nH]c2c1 [ALBENDAZOLE] | Not Active | Not Active

Target: T3, Cysteinyl leukotriene receptor 1 (Homo sapiens, UniProt Q9Y271); also: in other assays of this panel Not Active means under 50% inhibition at 10 µM
T3 sequence (Q9Y271 whole entry): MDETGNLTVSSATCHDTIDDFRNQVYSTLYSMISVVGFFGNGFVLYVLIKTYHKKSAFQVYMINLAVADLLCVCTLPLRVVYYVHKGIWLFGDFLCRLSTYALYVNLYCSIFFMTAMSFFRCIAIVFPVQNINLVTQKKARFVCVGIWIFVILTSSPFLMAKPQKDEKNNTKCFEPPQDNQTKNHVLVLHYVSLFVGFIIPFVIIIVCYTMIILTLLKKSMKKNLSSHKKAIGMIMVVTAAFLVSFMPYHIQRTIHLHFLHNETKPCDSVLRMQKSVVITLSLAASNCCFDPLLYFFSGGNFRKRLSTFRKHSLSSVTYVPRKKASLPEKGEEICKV
Experiment: not given
Type: cell membranes, CHO-K1, Membrane
Conditions: cho-k1

SMILES | IC50
COc1ccc(CN(CCN(C)C)c2ccccn2)cc1 [PYRILAMINE] | Not Active
O=C1OC2(c3ccc(O)cc3Oc3cc(O)ccc32)c2ccccc21 [FLUORESCEIN] | Not Active
Brc1ccccc1 [BROMOBENZENE] | Not Active
CCCSc1ccc2nc(NC(=O)OC)[nH]c2c1 [ALBENDAZOLE] | Not Active

Target: Melanocortin receptor 4 (Homo sapiens, UniProt P32245); also: in other assays of this panel Not Active means under 50% inhibition at 10 µM
Sequence (P32245 whole entry): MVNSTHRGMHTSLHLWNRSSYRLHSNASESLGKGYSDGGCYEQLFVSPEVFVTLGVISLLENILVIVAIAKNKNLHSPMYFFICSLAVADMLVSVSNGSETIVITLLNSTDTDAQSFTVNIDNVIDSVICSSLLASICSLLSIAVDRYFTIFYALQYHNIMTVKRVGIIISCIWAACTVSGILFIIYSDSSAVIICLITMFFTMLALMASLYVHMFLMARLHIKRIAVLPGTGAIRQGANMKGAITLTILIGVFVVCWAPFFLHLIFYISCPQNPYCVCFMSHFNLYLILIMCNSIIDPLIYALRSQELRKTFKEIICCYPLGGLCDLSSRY
Experiment: not given
Type: cell membranes, Membrane
Conditions: hek293

SMILES | IC50
COc1ccc(CN(CCN(C)C)c2ccccn2)cc1 [PYRILAMINE] | Not Active
O=C1OC2(c3ccc(O)cc3Oc3cc(O)ccc32)c2ccccc21 [FLUORESCEIN] | Not Active
Brc1ccccc1 [BROMOBENZENE] | Not Active
CCCSc1ccc2nc(NC(=O)OC)[nH]c2c1 [ALBENDAZOLE] | Not Active

Target: Melanocortin receptor 5 (Homo sapiens, UniProt P33032); also: in other assays of this panel Not Active means under 50% inhibition at 10 µM
Sequence (P33032 whole entry): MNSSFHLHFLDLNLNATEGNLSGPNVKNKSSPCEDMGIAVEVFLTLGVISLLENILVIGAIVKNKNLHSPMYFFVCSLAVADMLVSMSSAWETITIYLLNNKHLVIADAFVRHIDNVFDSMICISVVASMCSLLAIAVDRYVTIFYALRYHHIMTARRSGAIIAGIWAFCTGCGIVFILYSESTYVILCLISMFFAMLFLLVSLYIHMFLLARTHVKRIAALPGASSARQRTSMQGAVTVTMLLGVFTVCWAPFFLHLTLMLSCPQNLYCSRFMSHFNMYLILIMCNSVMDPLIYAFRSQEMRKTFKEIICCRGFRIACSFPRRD
Experiment: not given
Type: cell membranes, HEK293, Membrane
Conditions: hek293

SMILES | IC50
COc1ccc(CN(CCN(C)C)c2ccccn2)cc1 [PYRILAMINE] | Not Active
O=C1OC2(c3ccc(O)cc3Oc3cc(O)ccc32)c2ccccc21 [FLUORESCEIN] | Not Active
Brc1ccccc1 [BROMOBENZENE] | Not Active
CCCSc1ccc2nc(NC(=O)OC)[nH]c2c1 [ALBENDAZOLE] | Not Active

Target: Mu-type opioid receptor (Homo sapiens, UniProt P35372)
Sequence (P35372 whole entry): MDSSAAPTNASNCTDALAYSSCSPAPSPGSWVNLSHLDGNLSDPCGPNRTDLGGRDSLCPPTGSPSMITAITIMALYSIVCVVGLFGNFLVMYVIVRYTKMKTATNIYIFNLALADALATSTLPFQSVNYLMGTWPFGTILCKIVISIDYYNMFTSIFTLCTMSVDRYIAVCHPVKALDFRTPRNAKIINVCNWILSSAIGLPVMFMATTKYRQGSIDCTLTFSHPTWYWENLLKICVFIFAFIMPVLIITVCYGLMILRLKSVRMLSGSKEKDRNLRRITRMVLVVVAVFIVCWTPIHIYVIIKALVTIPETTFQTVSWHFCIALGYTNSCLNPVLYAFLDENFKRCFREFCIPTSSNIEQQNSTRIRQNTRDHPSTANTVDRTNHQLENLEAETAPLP
Experiment: DRUGMATRIX: Opiate mu (OP3, MOP) radioligand binding (ligand: [3H] Diprenorphine)
Type: cell membranes, CHO-K1, Membrane
Conditions: cho-k1; Not Active = under 50% inhibition at 10 µM

SMILES | IC50
COc1ccc(CN(CCN(C)C)c2ccccn2)cc1 [PYRILAMINE] | Not Active
O=C1OC2(c3ccc(O)cc3Oc3cc(O)ccc32)c2ccccc21 [FLUORESCEIN] | Not Active
Brc1ccccc1 [BROMOBENZENE] | Not Active
CCCSc1ccc2nc(NC(=O)OC)[nH]c2c1 [ALBENDAZOLE] | Not Active

Target: T4, Caspase-1 (Homo sapiens, UniProt P29466);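 also: Caspase-1 enzyme inhibition assay with a peptide substrate; in other assays of this panel Not Active means under 50% inhibition at 10 µM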
T4 sequence (P29466 whole entry): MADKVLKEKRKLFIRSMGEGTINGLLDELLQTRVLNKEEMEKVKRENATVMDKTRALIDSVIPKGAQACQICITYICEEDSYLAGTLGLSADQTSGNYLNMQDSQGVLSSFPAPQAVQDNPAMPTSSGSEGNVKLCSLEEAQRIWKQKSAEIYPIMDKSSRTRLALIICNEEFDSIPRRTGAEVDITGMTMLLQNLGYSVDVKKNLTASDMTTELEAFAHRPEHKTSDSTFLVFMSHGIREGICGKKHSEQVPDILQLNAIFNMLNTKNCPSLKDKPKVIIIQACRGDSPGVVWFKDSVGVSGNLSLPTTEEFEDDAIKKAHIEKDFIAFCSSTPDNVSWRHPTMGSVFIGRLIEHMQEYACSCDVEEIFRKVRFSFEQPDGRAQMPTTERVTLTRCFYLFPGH
Experiment: not given
Design: species or system Escherichia coli
Conditions: not given

SMILES | IC50
COc1ccc(CN(CCN(C)C)c2ccccn2)cc1 [PYRILAMINE] | Not Active
O=C1OC2(c3ccc(O)cc3Oc3cc(O)ccc32)c2ccccc21 [FLUORESCEIN] | Not Active
Brc1ccccc1 [BROMOBENZENE] | Not Active
CCCSc1ccc2nc(NC(=O)OC)[nH]c2c1 [ALBENDAZOLE] | Not Active

Target: T5, Cathepsin G (Homo sapiens, UniProt P08311)
T5 sequence (P08311 whole entry): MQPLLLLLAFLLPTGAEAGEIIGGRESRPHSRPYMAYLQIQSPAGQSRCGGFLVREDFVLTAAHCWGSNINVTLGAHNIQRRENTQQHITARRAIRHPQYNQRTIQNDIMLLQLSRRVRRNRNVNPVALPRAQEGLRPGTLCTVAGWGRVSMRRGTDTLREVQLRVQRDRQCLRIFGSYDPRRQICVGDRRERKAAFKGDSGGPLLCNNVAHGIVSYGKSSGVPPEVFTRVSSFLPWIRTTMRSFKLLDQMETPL
Experiment: not given
Type: tissue-based
Conditions: neutrophil

SMILES | IC50
COc1ccc(CN(CCN(C)C)c2ccccn2)cc1 [PYRILAMINE] | Not Active
O=C1OC2(c3ccc(O)cc3Oc3cc(O)ccc32)c2ccccc21 [FLUORESCEIN] | Not Active
Brc1ccccc1 [BROMOBENZENE] | Not Active
CCCSc1ccc2nc(NC(=O)OC)[nH]c2c1 [ALBENDAZOLE] | Not Active

Target: Epidermal growth factor receptor (Homo sapiens, UniProt P00533)
Sequence (P00533 whole entry): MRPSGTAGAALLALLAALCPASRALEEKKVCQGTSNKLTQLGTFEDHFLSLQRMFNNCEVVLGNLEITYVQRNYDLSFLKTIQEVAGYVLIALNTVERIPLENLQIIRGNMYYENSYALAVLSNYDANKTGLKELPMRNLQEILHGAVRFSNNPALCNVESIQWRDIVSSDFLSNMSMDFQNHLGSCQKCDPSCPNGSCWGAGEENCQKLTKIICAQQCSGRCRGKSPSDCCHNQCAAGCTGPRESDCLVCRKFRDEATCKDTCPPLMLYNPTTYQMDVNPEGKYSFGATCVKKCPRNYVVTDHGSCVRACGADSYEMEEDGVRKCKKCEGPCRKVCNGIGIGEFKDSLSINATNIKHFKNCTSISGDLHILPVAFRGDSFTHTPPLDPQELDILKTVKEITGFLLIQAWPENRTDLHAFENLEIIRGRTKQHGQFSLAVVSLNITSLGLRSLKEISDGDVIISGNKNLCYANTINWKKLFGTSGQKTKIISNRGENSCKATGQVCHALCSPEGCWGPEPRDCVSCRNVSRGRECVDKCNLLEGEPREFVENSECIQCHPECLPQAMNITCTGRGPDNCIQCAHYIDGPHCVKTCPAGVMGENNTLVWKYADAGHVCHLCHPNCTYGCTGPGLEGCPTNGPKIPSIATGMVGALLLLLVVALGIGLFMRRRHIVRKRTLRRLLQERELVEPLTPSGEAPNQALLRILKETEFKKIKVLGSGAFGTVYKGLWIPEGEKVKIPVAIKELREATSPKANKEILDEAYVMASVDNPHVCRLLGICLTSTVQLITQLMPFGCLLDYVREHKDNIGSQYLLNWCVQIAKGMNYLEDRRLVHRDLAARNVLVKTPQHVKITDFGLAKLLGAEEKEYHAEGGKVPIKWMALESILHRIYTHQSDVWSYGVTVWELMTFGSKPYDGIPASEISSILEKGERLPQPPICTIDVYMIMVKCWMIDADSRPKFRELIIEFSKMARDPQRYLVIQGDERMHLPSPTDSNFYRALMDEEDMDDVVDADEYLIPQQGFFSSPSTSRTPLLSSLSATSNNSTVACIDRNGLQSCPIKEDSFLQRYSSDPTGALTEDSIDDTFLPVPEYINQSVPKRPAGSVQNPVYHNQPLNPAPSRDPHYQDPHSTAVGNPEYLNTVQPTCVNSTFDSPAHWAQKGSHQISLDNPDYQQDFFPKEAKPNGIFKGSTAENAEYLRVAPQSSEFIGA
Experiment: DRUGMATRIX: Protein Tyrosine Kinase, EGF Receptor enzyme inhibition (substrate: Poly(Glu:Tyr))
Type: cell-based, Insect cells
Conditions: insect cells; Not Active = under 50% inhibition at 10 µM

SMILES | IC50
COc1ccc(CN(CCN(C)C)c2ccccn2)cc1 [PYRILAMINE] | Not Active
O=C1OC2(c3ccc(O)cc3Oc3cc(O)ccc32)c2ccccc21 [FLUORESCEIN] | Not Active
Brc1ccccc1 [BROMOBENZENE] | Not Active
CCCSc1ccc2nc(NC(=O)OC)[nH]c2c1 [ALBENDAZOLE] | Not Active

Target: Tyrosine-protein kinase Fyn (Homo sapiens, UniProt P06241)
Sequence (P06241 whole entry): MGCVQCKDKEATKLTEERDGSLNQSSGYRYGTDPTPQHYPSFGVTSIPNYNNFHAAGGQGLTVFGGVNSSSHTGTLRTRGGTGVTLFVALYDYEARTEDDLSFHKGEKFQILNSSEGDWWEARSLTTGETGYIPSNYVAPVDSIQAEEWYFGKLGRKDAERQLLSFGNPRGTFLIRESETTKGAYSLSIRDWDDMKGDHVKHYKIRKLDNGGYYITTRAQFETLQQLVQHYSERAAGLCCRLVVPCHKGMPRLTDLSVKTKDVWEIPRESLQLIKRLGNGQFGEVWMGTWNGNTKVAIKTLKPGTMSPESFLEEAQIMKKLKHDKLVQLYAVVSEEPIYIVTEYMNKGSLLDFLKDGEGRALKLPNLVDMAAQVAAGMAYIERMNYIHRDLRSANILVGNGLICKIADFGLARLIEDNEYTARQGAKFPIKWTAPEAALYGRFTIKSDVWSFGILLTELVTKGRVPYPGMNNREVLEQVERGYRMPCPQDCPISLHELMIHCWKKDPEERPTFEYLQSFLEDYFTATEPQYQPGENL
Experiment: biochemical
Type: cell-based, Insect cells
Conditions: insect cells

SMILES | IC50
COc1ccc(CN(CCN(C)C)c2ccccn2)cc1 [PYRILAMINE] | Not Active
O=C1OC2(c3ccc(O)cc3Oc3cc(O)ccc32)c2ccccc21 [FLUORESCEIN] | Not Active
Brc1ccccc1 [BROMOBENZENE] | Not Active
CCCSc1ccc2nc(NC(=O)OC)[nH]c2c1 [ALBENDAZOLE] | Not Active

Test system: not listed separately
Experiment: DRUGMATRIX: Purinergic P2X radioligand binding (ligand: [3H] alpha, beta-Methylene-ATP)
Type: cell membranes, Oryctolagus cuniculus, New Zealand albino, Urinary bladder, Membrane
Conditions: Not Active = under 50% inhibition at 10 µM

SMILES | IC50 | Ki
COc1ccc(CN(CCN(C)C)c2ccccn2)cc1 [PYRILAMINE] | Not Active | Not Active
O=C1OC2(c3ccc(O)cc3Oc3cc(O)ccc32)c2ccccc21 [FLUORESCEIN] | Not Active | Not Active
Brc1ccccc1 [BROMOBENZENE] | Not Active | Not Active
CCCSc1ccc2nc(NC(=O)OC)[nH]c2c1 [ALBENDAZOLE] | Not Active | Not Active

Target: 5-hydroxytryptamine receptor 1B (Rattus norvegicus, UniProt P28564); also: in other assays of this panel Not Active means under 50% inhibition at 10 µM
Sequence (P28564 whole entry): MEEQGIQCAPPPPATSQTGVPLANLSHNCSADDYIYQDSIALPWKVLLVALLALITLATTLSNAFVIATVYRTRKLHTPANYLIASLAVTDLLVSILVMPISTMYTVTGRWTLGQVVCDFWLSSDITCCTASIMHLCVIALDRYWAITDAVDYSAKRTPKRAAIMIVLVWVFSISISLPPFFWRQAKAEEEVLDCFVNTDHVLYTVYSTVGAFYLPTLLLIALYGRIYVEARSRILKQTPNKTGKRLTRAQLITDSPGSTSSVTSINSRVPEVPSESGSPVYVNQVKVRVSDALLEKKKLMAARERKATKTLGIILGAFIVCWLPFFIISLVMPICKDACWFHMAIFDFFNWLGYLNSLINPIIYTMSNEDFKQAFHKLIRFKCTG
Experiment: not given
Type: cell membranes, Wistar, Cerebral cortex, Membrane
Conditions: not given

SMILES | IC50
COc1ccc(CN(CCN(C)C)c2ccccn2)cc1 [PYRILAMINE] | Not Active
O=C1OC2(c3ccc(O)cc3Oc3cc(O)ccc32)c2ccccc21 [FLUORESCEIN] | Not Active
Brc1ccccc1 [BROMOBENZENE] | Not Active
CCCSc1ccc2nc(NC(=O)OC)[nH]c2c1 [ALBENDAZOLE] | Not Active
